{
  "source": "patent US9067914B1",
  "about": "“Tropomyosin-related kinase (TRK) inhibitors” (Genzyme Corporation, priority 2013, dated 2015)",
  "key": {"[1]": {"test_system": "PGPS knee arthritis in male Lewis rats", "test": "Reactivated peptidoglycan-polysaccharide (PGPS) knee arthritis", "assay_type": "in vivo, rat", "details": "for Gait scores and deficiency, first reactivation / Gait scores and deficiency, second reactivation: significant reduction: male Lewis rats; for Gait scores and deficiency, first reactivation: days 1-4; for Gait scores and deficiency, second reactivation: significant reduction: days 14-18", "excerpt": "Male Lewis rats were acclimated to the testing facility for 7 days. The rats were housed in 5 per cage in shoe-box polycarbonate cages with wire tops, wood chip bedding and suspended food and water bottles.\nOn day −21, the male Lewis rats were randomized into treatment groups by body weight. The rats were anesthetized and injected with peptidoglycan-polysaccharide (PGPS) into the right knee to induce PGPS arthritis. Arthritis was reactivated on days 0 and 14 by an IV tail injection of PGPS.\nThe rats were weighed at baseline on days 0, 4, 14 and 18. Knee thickness was measured by caliper at baseline and on days 0, 2, 4, 14, 16 and 18. Gait analysis occurred on days 0-4 and 14-18, with video recording of selected animals on days 3 and 17. Gait analysis was performed by applying ink to the ventral surface of the foot and documenting weight bearing during movement across paper.\nThe animals were terminated at day 18. Right knees were removed, trimmed of extraneous tissue, and collected into 10% neutral buffered formalin. After two days in the formalin buffer and three days in 10% formic acid decalcifier, the knees were cut into two approximately equal halves in the frontal plane and processed for paraffin embedding and stained with T.Blue. Histological examinations were subsequently performed for bone resorption, inflammation, pannus and cartilage damage.\nBody weights, gait deficiency and caliper measurements were analyzed using a one-way analysis of variance (1-way ANOVA) with Dunnett's multiple comparison post-test. Gait scores were analyzed using a Kruskal-Wallis test (non-parametric ANOVA) with Dunn's multiple comparison post-test. Histopathology scores were analyzed using a Kruskal-Wallis test (non-parametric ANOVA) with Dunn's multiple comparison post-test."}, "[2]": {"test_system": "MIA induced osteoarthritis in male Wistar rats", "test": "Monosodium iodoacetate (MIA) induced osteoarthritis, weight bearing", "assay_type": "in vivo, rat", "excerpt": "Male Wistar rats were acclimated to the testing facility for 5 days. The rats were individually housed in micro-isolator shoe-box polycarbonate cages with cob bedding and water bottles. Dry pelleted food of known composition and nutritional components was provided ad libitum\nAnimals were randomized by treatment type using an online random number generator. Each treatment group was assigned a number, entered into the random number generator, recorded then translated back to the associated treatment. All injections were given in the left leg unless the treatment indicated “Contralateral” in which case the injection was given in the right leg. Both legs were shaved on all animals at the time of the treatment injections to blind the test administrator.\nThe rats were weighed the day prior to injection with monosodium iodoacetate (MIA), the agent used to induce osteoarthritis in the animals. The day of injection, rats from groups 2-8 received a subcutaneous (SC) dose of buprenorphine at least one hour prior to induction. […] Naïve animals were then placed in recovery. All other animals received an injection of MIA. In animals receiving MIA, the hind leg was flexed and an injection of MIA (25 μL) was injected into the intra-articular space using a 27 gauge ½ inch needle. Standard postoperative care was performed (twice daily for 48 hours).\nOn Day 8 the test article was administered as described above. On Days −1, 7, 14, 21, 28, and 35 post-induction, weight bearing was assessed. A weight bearing scale was utilized using a plexiglass chamber to assess the amount of weight distributed in each hind limb. The animals were acclimated to the chamber for at least 5 minutes prior to testing and the weight distribution was recorded 5 times.\nThe animals were terminated at day 36. Both stifles were collected from each animal; the skin was removed from the joint and the patella was removed while leaving as much of the fat pad intact with the joint. The stifle was placed in the appropriate cassette with rolled gauze to secure the stifle in the cassette and then placed into 4% Paraformaldehyde. These samples were examined histologically."}, "TrkB": {"target": "TrkB (Homo sapiens (Human), UniProt Q16620)", "sequence (Q16620 32-822)": "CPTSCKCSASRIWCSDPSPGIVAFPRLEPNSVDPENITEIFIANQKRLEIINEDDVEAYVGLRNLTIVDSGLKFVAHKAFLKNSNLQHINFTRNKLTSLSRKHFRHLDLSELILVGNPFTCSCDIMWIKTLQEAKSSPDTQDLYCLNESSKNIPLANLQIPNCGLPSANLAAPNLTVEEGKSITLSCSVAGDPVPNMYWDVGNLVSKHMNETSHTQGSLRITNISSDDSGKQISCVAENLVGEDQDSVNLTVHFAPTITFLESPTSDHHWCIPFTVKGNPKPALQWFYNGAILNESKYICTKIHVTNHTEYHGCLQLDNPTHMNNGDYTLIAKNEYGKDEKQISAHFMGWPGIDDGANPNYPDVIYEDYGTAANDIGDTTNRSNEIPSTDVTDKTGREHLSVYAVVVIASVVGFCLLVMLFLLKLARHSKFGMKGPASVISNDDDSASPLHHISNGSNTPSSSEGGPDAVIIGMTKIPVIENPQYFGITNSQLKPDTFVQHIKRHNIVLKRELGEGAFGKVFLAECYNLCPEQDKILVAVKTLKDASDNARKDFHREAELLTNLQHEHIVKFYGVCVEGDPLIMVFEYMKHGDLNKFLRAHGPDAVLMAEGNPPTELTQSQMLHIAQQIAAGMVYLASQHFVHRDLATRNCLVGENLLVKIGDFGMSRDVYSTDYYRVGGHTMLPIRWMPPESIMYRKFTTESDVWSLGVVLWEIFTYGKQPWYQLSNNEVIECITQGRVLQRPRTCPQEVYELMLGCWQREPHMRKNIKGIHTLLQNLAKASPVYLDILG", "test": "TrkB activity, off-chip mobility shift assay (LabChip 3000)", "assay_type": "biochemical", "details": "70 μM ATP (ATP Km); n/d = none detected"}, "TrkA": {"target": "TrkA (Homo sapiens (Human), UniProt P04629)", "sequence (P04629 33-796)": "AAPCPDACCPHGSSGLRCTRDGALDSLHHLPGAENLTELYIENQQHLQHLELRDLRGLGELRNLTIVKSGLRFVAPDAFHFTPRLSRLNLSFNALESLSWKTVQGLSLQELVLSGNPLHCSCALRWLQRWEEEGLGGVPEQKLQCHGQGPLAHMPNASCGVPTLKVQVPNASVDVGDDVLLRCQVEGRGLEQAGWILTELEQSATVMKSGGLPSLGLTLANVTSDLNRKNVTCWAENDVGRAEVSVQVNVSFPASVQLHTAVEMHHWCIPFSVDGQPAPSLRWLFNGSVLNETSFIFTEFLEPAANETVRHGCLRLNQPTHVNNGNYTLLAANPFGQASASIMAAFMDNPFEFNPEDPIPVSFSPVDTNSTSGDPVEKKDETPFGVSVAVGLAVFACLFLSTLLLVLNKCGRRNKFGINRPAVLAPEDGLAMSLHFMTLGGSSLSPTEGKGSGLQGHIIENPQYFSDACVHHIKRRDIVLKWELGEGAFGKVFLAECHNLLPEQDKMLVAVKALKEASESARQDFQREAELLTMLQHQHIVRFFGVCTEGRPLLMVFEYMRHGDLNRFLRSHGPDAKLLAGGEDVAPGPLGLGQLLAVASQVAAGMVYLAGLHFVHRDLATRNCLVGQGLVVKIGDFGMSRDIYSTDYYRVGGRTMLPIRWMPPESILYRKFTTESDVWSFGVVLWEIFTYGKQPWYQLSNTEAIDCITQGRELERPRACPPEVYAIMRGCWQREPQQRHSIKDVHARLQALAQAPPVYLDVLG", "test": "TrkA activity, off-chip mobility shift assay (LabChip 3000)", "assay_type": "biochemical", "details": "55 μM ATP (ATP Km); n/d = none detected"}, "[3]": {"details": "intra-articular on day -7 (Triamcinolone 0.06 mg; test compound 1 mg)"}, "[4]": {"details": "right knee, day 18, intra-articular on day -7 (Triamcinolone 0.06 mg; test compound 1 mg)"}, "[5]": {"details": "intra-articular on day -7, 1 mg"}},
  "data": [
    {"smiles": "C[C@]12C=CC(=O)C=C1CC[C@H]1[C@@H]3C[C@@H](O)[C@](O)(C(=O)CO)[C@@]3(C)C[C@H](O)[C@@]12F", "note": "[Triamcinolone, reference compound]", "values": [
      {"measurement": "Knee caliper measurements", "setting": "[1]; [3]", "value": "significantly reduced on days 2, 4, 16, and 18, as well as prior to the first reactivation on day 0"},
      {"measurement": "Reduction of knee caliper AUC", "setting": "[1]; [3]", "value": "53-106%"},
      {"measurement": "Gait scores and deficiency, first reactivation", "setting": "[1]; [3]", "value": "significantly reduced"},
      {"measurement": "Gait scores and deficiency, second reactivation: significant reduction", "setting": "[1]; [3]", "value": "on day 15, 17, and 18"},
      {"measurement": "Histopathology: reduction in summed scores", "setting": "[1]; [4]", "value": 74, "unit": "%"}
    ]},
    {"smiles": "COc1ccc(COc2ccc(Cn3c(N)nc4cc(-c5cnn(C)c5)cnc43)cc2OC)cc1", "note": "[Ex. 3-15, 3-(3-Methoxy-4-((4-methoxybenzyl)oxy)benzyl)-6-(1-methyl-1H-pyrazol-4-yl)-3H-imidazo[4,5-b]pyridin-2-amine]", "values": [
      {"measurement": "Knee caliper measurements", "setting": "[1]; [3]", "value": "significantly reduced on day 14"},
      {"measurement": "Reduction of knee caliper AUC", "setting": "[1]; [3]", "value": "generally unaffected"},
      {"measurement": "Reduction of gait scores and deficiency AUC, first reactivation", "setting": "[1]; [5]", "value": "92-93%"},
      {"measurement": "Reduction of gait scores and deficiency AUC, second reactivation", "setting": "[1]; [5]", "value": "85-86%"},
      {"measurement": "Reduction of summed AUC for gait deficiency", "setting": "[1]; [5]", "value": 84, "unit": "%"},
      {"measurement": "Gait scores and deficiency, first reactivation", "setting": "[1]; [3]", "value": "significant reductions"},
      {"measurement": "Gait scores and deficiency, second reactivation: significant reduction", "setting": "[1]; [3]", "value": "Scores were significantly reduced throughout the second reactivation, and reductions in deficiency were significant on days 15, 17, and 18"},
      {"measurement": "Histopathology: reduction in summed scores", "setting": "[1]; [4]", "value": 70, "unit": "%"},
      {"measurement": "Histopathology: reductions in all parameters (bone resorption, inflammation, pannus, cartilage damage)", "setting": "[1]; [4]", "value": "49-94%"},
      {"measurement": "Efficacy (weight bearing)", "setting": "[2]; 10 μg Contralateral injection on Day 8", "value": "efficacy at 3 and 4 weeks following administration"},
      {"measurement": "Efficacy (weight bearing)", "setting": "[2]; 10 μg Ipsilateral injection on Day 8", "value": "efficacy was observed at 2 through 4 weeks following administration"},
      {"measurement": "Efficacy (weight bearing)", "setting": "[2]; 30 μg Contralateral injection on Day 8", "value": "efficacy at only the 3 week timepoint"},
      {"measurement": "Efficacy (weight bearing)", "setting": "[2]; 30 μg Ipsilateral injection on Day 8", "value": "effective throughout the four weeks following administration"},
      {"measurement": "Systemic pain relief (weight bearing)", "setting": "[2]; 100 μg Contralateral injection on Day 8, 1-4 weeks", "value": "did not show systemic pain relief at any timepoint"},
      {"measurement": "Efficacy (weight bearing)", "setting": "[2]; 100 μg Ipsilateral injection on Day 8", "value": "effective throughout the four weeks following administration"},
      {"measurement": "Comparison with MIA/LRS at day 35 (p<0.05)", "setting": "[2]; Ipsilateral 30 μg", "value": "MIA/LRS was significantly worse"},
      {"measurement": "Comparison with MIA/LRS at day 35 (p<0.05)", "setting": "[2]; Ipsilateral 100 μg", "value": "MIA/LRS was significantly worse"},
      {"measurement": "Body weight results", "setting": "[2]; male Wistar rats, intra-articular on Day 8", "value": "No adverse observations"},
      {"measurement": "Histopathology of the knee joint", "setting": "[2]; stifles collected at day 36", "value": "no adverse changes"},
      {"measurement": "IC50", "setting": "TrkB", "value": 0.1, "unit": "nM"},
      {"measurement": "IC50", "setting": "TrkA", "value": 0.3, "unit": "nM"}
    ]}
  ]
}
